From patent US11254652B2, “Crystalline forms of N-(4-(4-(cyclopropymethyl)piperazine-1-carbonyl)phenyl)quinoline-8-sulfonamide” (Agios Pharmaceuticals, Inc., priority 2017, dated 2022)
In brackets after ≈: the same amount, converted by molar mass. Structures can show the parent of a compound that is named as a salt. Where two headings read alike, the source gives them in different places.

Key:
[1] = Pharmacokinetic evaluation after single PO suspension dose; assay type: in vivo, Sprague-Dawley rat; settings: for AUC 0-last / Cmax: PO 200 mg/kg (free base equivalent), suspension in 0.5% methyl-cellulose, male Sprague-Dawley rats, n=6, plasma, 200 mg/kg; for AUC fold higher compared to crystalline free-base of Compound 1 / Cmax fold higher compared to crystalline free-base of Compound 1: PO suspension 200 mg/kg, fasted male Sprague-Dawley rats
Method: Single dose in suspension using Crystalline Form A micronized and unmicronized, and crystalline free base of Compound 1 were administered to male Sprague-Dawley rat at 200 mg/kg. Blood samples were collected in the presence of K2EDTA, and were centrifuged to obtain plasma. The plasma was then analyzed for these compounds by LC/MS.
All animals involved in the dosing schedule were weighted and assigned numbers. All suspension formulations were freshly made prior use. Each solution was prepared at 40 mg/mL in 0.5% methyl-cellulose solution in water. The tubes were vortex for 2 min and sonicate for 30 min to achieve a white homogenous suspension.
All animals (n=6/group) were dosed orally in a volume of 5 mL/kg. Following dosing, each rat was bled at each of the designated time points. Blood samples were collected from the tail vain. Blood aliquots (150 μl) were collected in tubes coated with K2EDTA, mixed gently then kept on ice and centrifuged at 2,000 g for 5 minutes at 4° C., within 15 min of collection. The plasma layer was collected and maintained frozen at −70° C. until further processing.
Bioanalytical quantitation using HPLC/triple quadruple mass spectrometry (HPLC-MS) was performed. Plasma concentrations and T½ were calculated and reported.
A 1 mg/mL standard solution in DMSO:methanol (20:80, v/v) was diluted in 50 fold and subsequently serial diluted in 50% methanol water. Aliquots (10 μl) of the serial dilutions were mixed with 190 ul of control plasma for use as a standard curve. Plasma samples (50 μl) and standard samples (non-diluted) were diluted 10× with ice cold acetonitrile containing 40 ng/ml dexamethasone as internal standard. Acetonitrile precipitated samples and standards were vortexed at 5 g for 2 min (IKA vortex), then centrifuged at 5000 g for 10 min.
For 10-fold dilution standard samples: an aliquot of 5 μL sample was added with 45 μL control plasma to obtain the diluted samples. If a 50-fold dilution standard sample was required: an aliquot of 10 μL 10-fold diluted sample was added with 40 μL blank plasma to obtain the final diluted samples. Then, the exaction procedure for diluted samples was same as those for non-diluted samples.
Samples and standards (10 μl) were injected into the LC-MS system, as described below. Concentrations of dose solutions were reported in mg/mL.
LC: 7.5 μl of each sample and standard were injected onto a Waters BEH C18 (2.1×50 mm, 1.7 μm, maintained at 60° C.) column at 0.6 mL/min by an UPLC. The column was equilibrated at 10% acetonitrile. Compounds were eluted with a gradient to 95% acetonitrile. All mobile phase contained 0.025% (v/v) formic acid with 1 mM ammonium acetate.
MS: Column eluent was analyzed by electrospray ionization into a triple quadruple mass spectrometer system. Eluent composition was analyzed for ion pair specifics to the internal standard and the analyte respectively.
Experimental samples were compared with standard curve samples to determine compound concentrations. Average compound concentrations (in ng/mL±standard deviation) were reported for each time-point. […] PK analysis was performed in Phoenix Winnonlin; Cmax were determined as the maximum average concentration observed at a given point, the area under the curve (AUC) was reported for t0 to tlast ours.

[2] = Solubility in phosphate buffer pH7.4; assay type: physicochemical
[3] = Dynamic Vapor Sorption (DVS); assay type: physicochemical; settings: hemisulfate salt; for moisture picked up in DVS: 2% to 95% relative humidity, temperature not stated; for XRPD after DVS: Form A: DVS at 25° C. and 40° C.
Method: Dynamic Vapor Sorption (DVS) was done using a DVS Intrinsic 1. The sample is loaded into a sample pan and suspended from a microbalance. A typical sample mass for DVS measurement is 25 mg. Nitrogen gas bubbled through distilled water provides the desired relative humidity. A typical measurement comprises the steps: • 1. Equilibrate at 50% RH • 2. 50% to 2%. (50%, 40%, 30%, 20%, 10% and 2%) • a. Hold minimum of 5 mins and maximum of 60 minutes at each humidity. The pass criteria is less than 0.002% change • 3. 2% to 95% (2%, 10%, 20%, 30%, 40%, 50%, 60%, 70%, 80%, 90%, 95%) • b. Hold minimum of 5 mins and maximum of 60 minutes at each humidity. The pass criteria is less than 0.002% change • 4. 95% to 2% (95%, 80%, 70%, 60%, 50%, 40%, 30%, 20%, 10%, 2%) • c. Hold minimum of 5 mins and maximum of 60 minutes at each humidity. The pass criteria is less than 0.002% change • 5. 2% to 50% (2%, 10%, 20%, 30%, 40%, 50%) • d. Hold minimum of 5 mins and maximum of 60 minutes at each humidity. The pass criteria is less than 0.002% change
(§1) The water content by Karl Fisher was about 5.3%. […] A DVS isotherm taken at 40° C. was essentially the same as the one at 25° C. […] Humidity test was conducted on Form A with exposure to 11%, 48%, and 75% relative humidity at 40° C. for 2 weeks followed by XRPD analysis. […] Crystallographic data for Form A is as follows:
Form B tends to hold substantial amount of solvent.
(§2) Form D was determined to be anhydrous with a melting peak at 239° C. See e.g., FIG. 9. DVS of Pattern D was performed and solid picked up about 2% moisture from 2% to 95% relative humidity.

[4] = Humidity / desiccant exposure test followed by XRPD analysis; assay type: physicochemical; settings: one week exposure to 75% relative humidity at 40° C.
Method: FIG. 5 (i) depicts X-ray powder diffraction pattern (XRPD) overlay for crystalline hemisulfate salt Form A and after exposure to 11%, 48%, and 75% relative humidity and 40° C. for two weeks. […] FIG. 5 (ii) depicts XRPD overlay for crystalline hemisulfate salt Form A and after exposure to phosphorus pentoxide (P2O5) granules at room temperature and 50° C. for one week, as well as ambient temperature in a vial for 24 hrs.
as §1, §2

[5] = Solubility in water and simulated fluids at 37° C. (slurry, HPLC; XRPD of residual solid); assay type: physicochemical; settings: values based on hemi-sulfate sesqui-hydrate salt, hemisulfate salt
Method: Solubility of Patterns A, B and D were measured in water. The solids were slurried in the fluids for two days and at 37° C. The supernatant was syringe filtered and used for HPLC analysis. For Patterns A and D the solubility measurement was repeated and the sample was taken after 1 hr slurry. A calibration curve was developed using Pattern A. This was not assay corrected and therefore the solubility values are based on the hemi-sulfate, sesqui-hydrate salt.
Both Patterns B and D converted to Pattern A after two days slurry. Pattern D also converted to Pattern A within 1 hour slurry in Fasted state simulated gastric fluid (FaSSGF) or water. […] This could be because of the conversion of Patterns B and D to Pattern A. The solubility data and the resulting XRPD Pattern after the measurement are reported in Table 21.

[6] = Solubility measurements by gravimetric method in solvents at 23° C. and 50° C.; assay type: physicochemical; settings: non-crystalline freebase; for solubility at 2 days: organic solvent or mixture, thermodynamic from solid, read-out: Solubility
Method: Solubility measurements were done by gravimetric method in 20 different solvents at two temperatures (23° C. and 50° C.). About 20-30 mg of Form A, the synthesis of which is described below, was weighed and 0.75 mL solvent was added to form a slurry. The slurry was then stirred for two days at the specified temperature. The vial was centrifuged and the supernatant was collected for solubility measurement through gravimetric method. The saturated supernatant was transferred into pre-weighed 2 mL HPLC vials and weighed again (vial+liquid). The uncapped vial was then left on a 50° C. hot plate to slowly evaporate the solvent overnight. The vials were then left in the oven at 50° C. and under vacuum to remove the residual solvent so that only the dissolved solid remained. The vial was then weighed (vial+solid). From these three weights; vial, vial+liquid and vial+solid; the weight of dissolved solid and the solvent were calculated. Then using solvent density the solubility was calculated as mg solid/mL of solvent.
20-30 mg of Form A was weighed into 2 mL vial and 500 μL MeOH solvent system as outlined in the table was added. If dissolved, more solids were added to form the slurry. The slurries were then stirred for two days. The vials were centrifuged and the supernatant was collected for solubility measurement through gravimetric method by evaporation at 50° C. XRPD analysis was conducted on the solid after filtration of the slurries.
For the sake of comparison, the solubility of Compound 1, i.e., the non-crystalline freebase, was also measured in two solvent systems to see the effect of water.

O=C(c1ccc(NS(=O)(=O)c2cccc3cccnc23)cc1)N1CCN(CC2CC2)CC1 [Crystalline Form A (unmicronized), 1-(cyclopropylmethyl)-4-(4-(quinoline-8-sulfonamido)benzoyl)piperazin-1-ium hemisulfate sesquihydrate]
AUC 0-last ([1]; hemisulfate sesquihydrate): 356 ± 82.9 µg·h/mL
Cmax ([1]; hemisulfate sesquihydrate): 29800 ± 5300 ng/mL
AUC fold higher compared to crystalline free-base of Compound 1 ([1]; hemisulfate sesquihydrate): 2.7 fold
Cmax fold higher compared to crystalline free-base of Compound 1 ([1]; hemisulfate sesquihydrate): 1.6 fold
solubility compared to crystalline free-base of Compound 1 [2]: more soluble

O=C(c1ccc(NS(=O)(=O)c2cccc3cccnc23)cc1)N1CCN(CC2CC2)CC1 [Form D, N-(4-(4-(cyclopropylmethyl)piperazine-1-carbonyl)phenyl)quinoline-8-sulfonamide hemisulfate salt]
moisture picked up in DVS ([3]; listed as Pattern D): about 2%
XRPD after DVS ([3]; listed as Pattern D): remained unchanged
form after humidity exposure [4]: did not change the form
Solubility ([5]; FaSSGF, slurry time 1 hr): 5.43 mg Solid/mL solvent
Solubility ([5]; FaSSGF, slurry time 2 days, listed as D): 5.94 mg Solid/mL solvent
Solubility ([5]; FaSSIF, slurry time 2 days, listed as D): 3.49 mg Solid/mL solvent
Solubility ([5]; Water, slurry time 1 hr): 2.62 mg Solid/mL solvent
Solubility ([5]; Water, slurry time 2 days, listed as D): 2.71 mg Solid/mL solvent

O=C(c1ccc(NS(=O)(=O)c2cccc3cccnc23)cc1)N1CCN(CC2CC2)CC1 [Crystalline Form A (micronized), 1-(cyclopropylmethyl)-4-(4-(quinoline-8-sulfonamido)benzoyl)piperazin-1-ium hemisulfate sesquihydrate]
AUC 0-last ([1]; hemisulfate sesquihydrate): 478 ± 87.9 µg·h/mL
Cmax ([1]; hemisulfate sesquihydrate): 36700 ± 6800 ng/mL
AUC fold higher compared to crystalline free-base of Compound 1 ([1]; hemisulfate sesquihydrate): 3.8 fold
Cmax fold higher compared to crystalline free-base of Compound 1 ([1]; hemisulfate sesquihydrate): 2 fold
solubility compared to crystalline free-base of Compound 1 [2]: more soluble

O=C(c1ccc(NS(=O)(=O)c2cccc3cccnc23)cc1)N1CCN(CC2CC2)CC1 [Compound 1, N-(4-(4-(cyclopropylmethyl)piperazine-1-carbonyl)phenyl)quinoline-8-sulfonamide]
solubility at 2 days ([6]; MeOAc:MeOH (1:1) and 2.5 vol % water, 23 °C, MeOAc:MeOH (1:1) and 2.5 vol % water, 23° C.): 15 mg/mL (≈ 33.3 mM)
solubility at 2 days ([6]; MeOAc:MeOH (1:1) and 2.5 vol % water, 50 °C, MeOAc:MeOH (1:1) and 2.5 vol % water, 50° C.): 36 mg/mL (≈ 79.9 mM)
solubility at 2 days ([6]; MeOAc:MeOH (1:1), 23 °C, MeOAc:MeOH (1:1), 23° C.): 15 mg/mL (≈ 33.3 mM)
solubility at 2 days ([6]; MeOAc:MeOH (1:1), 50 °C, MeOAc:MeOH (1:1), 50° C.): 34 mg/mL (≈ 75.5 mM)
impact of 2.5 vol % water on solubility ([6]; MeOAc:MeOH (1:1)): did not have any impact

O=C(c1ccc(NS(=O)(=O)c2cccc3cccnc23)cc1)N1CCN(CC2CC2)CC1 [Form B, N-(4-(4-(cyclopropylmethyl)piperazine-1-carbonyl)phenyl)quinoline-8-sulfonamide hemisulfate salt]
moisture picked up in DVS [3]: about 14%
XRPD after DVS [3]: converted to a different Form K
Solubility ([5]; FaSSGF, slurry time 2 days, listed as B): 6.53 mg Solid/mL solvent
Solubility ([5]; FaSSIF, slurry time 2 days, listed as B): 0.20 mg Solid/mL solvent
Solubility ([5]; Water, slurry time 2 days, listed as B): 3.02 mg Solid/mL solvent

O=C(c1ccc(NS(=O)(=O)c2cccc3cccnc23)cc1)N1CCN(CC2CC2)CC1 [Crystalline free-base of Compound 1, N-(4-(4-(cyclopropylmethyl)piperazine-1-carbonyl)phenyl)quinoline-8-sulfonamide]
AUC 0-last [1]: 125 ± 85.8 µg·h/mL
Cmax [1]: 17900 ± 3600 ng/mL
